According to US20150289513A1, “USE OF A COMPOUND COMPRISING A POLYFLUOROBENZYL MOIETY AGAINST INSECTICIDE-RESISTANT PESTS” (priority 2012, published 2015):

Tests used:
[1] = test system: Anopheles funestus (metabolic-resistant strain FUMOZ-R); assay: Glazed tile contact test, knock-down; format: in vivo
Protocol: (§1) To produce a suitable preparation Transfluthrin was dissolved in acetone. The active compound solution was pipetted onto a glazed tile and, after drying, adult mosquitoes of the species: • Anopheles gambiae (target-site-resistant and metabolic-resistant strain: RSPH), • Anopheles gambiae (target-site-resitant and metabolic-resistant strain: Tiassalé), • Anopheles gambiae (tar et-site-resitant and metabolic-resistant strain: Akron), • Anopheles gambiae (target-site-resistant strain: VK7), and • Anopheles funestus (metabolic-resistant strain FUMOZ-R) were placed onto the treated tile (each strain was tested on separate tiles). The exposition time was 30 minutes.
0.25 hours, 0.5 hours, 1 hour, 2 hour, 3 hour, 4 hour and 24 hours after contact to the treated surface, the knock-down proportion of the test animals in % was determined. Here, 100% (effect) means that all mosquitoes have been killed; 0% (effect) means that none of the mosquitoes have been killed.
(§2) Similarly as outlined in example 2 for Transfluthrin, Metofluthrin efficacy was assessed against • Anopheles gambiae (target-site-resistant and metabolic-resistant strain: RSPH), • Anopheles funestus (metabolic-resistant strain FUMOZ-R), and • Culex quinquefasciatus (metabolic-resistant to DDT; strain P00), with the results shown in Tables 10 to 12. 0.25 hours, 0.5 hours, 1 hour, 2 hour, 3 hour, 4 hour and 24 hours after contact to the treated surface, the knock-down proportion of the test animals in % is depicted in Tables 10 to 12. 100% (effect) means that all mosquitoes have been killed; 0% (effect) means that none of the mosquitoes have been killed.
Similarly as outlined in example 2 for Transfluthrin, Metofluthrin efficacy was assessed against • Anopheles gambiae (target-site-resistant and metabolic-resistant strain: RSPH), • Anopheles funestus (metabolic-resistant strain FUMOZ-R), and with the results shown in Tables […]. 0.25 hours, 0.5 hours, 1 hour, 2 hour and 3 hours after contact to the treated surface, the knock-down proportion of the test animals in % is depicted in Tables 13 to 14. 100% (effect) means that all mosquitoes have been killed; 0% (effect) means that none of the mosquitoes have been killed.

[2] = test system: Culex quinquefasciatus (metabolic-resistant to DDT; strain P00); assay: Glazed tile contact test, knock-down; format: in vivo
Protocol: as §1, §2

[3] = 0.064 /ha, 0.25 h after contact

Measured: Effect %

CC=CC1C(C(=O)OCc2c(F)c(F)c(COC)c(F)c2F)C1(C)C (centres unmarked) [Metofluthrin, 2,3,5,6-Tetrafluoro-4-(methoxymethyl)benzyl 2,2-dimethyl-3-(prop-1-en-1-yl)cyclopropanecarboxylate]
40%: [1]; 1.6 /ha, 3 h after contact | [1]; 1.6 /ha, 4 h after contact
100%: [1]; 1.6 /ha, 0.5 h after contact | [1]; 1.6 /ha, 1 h after contact | [1]; 8 /ha, 0.25 h after contact | [1]; 8 /ha, 0.5 h after contact | [1]; 8 /ha, 1 h after contact | [1]; 8 /ha, 2 h after contact | [1]; 8 /ha, 3 h after contact | [1]; 8 /ha, 4 h after contact | [1]; 8 /ha, 24 h after contact | [1]; 40 /ha, 0.25 h after contact | [1]; 40 /ha, 0.5 h after contact | [1]; 40 /ha, 1 h after contact | [1]; 40 /ha, 2 h after contact | [1]; 40 /ha, 3 h after contact | [1]; 40 /ha, 4 h after contact | [1]; 40 /ha, 24 h after contact | [1]; 200 /ha, 0.25 h after contact | [1]; 200 /ha, 0.5 h after contact | [1]; 200 /ha, 1 h after contact | [1]; 200 /ha, 2 h after contact | [1]; 200 /ha, 3 h after contact | [1]; 200 /ha, 4 h after contact | [1]; 200 /ha, 24 h after contact | [1]; 1000 /ha, 0.25 h after contact | [1]; 1000 /ha, 0.5 h after contact | [1]; 1000 /ha, 1 h after contact | [1]; 1000 /ha, 2 h after contact | [1]; 1000 /ha, 3 h after contact | [1]; 1000 /ha, 4 h after contact | [1]; 1000 /ha, 24 h after contact | [2]; 1.6 /ha, 0.5 h after contact | [2]; 1.6 /ha, 1 h after contact | [2]; 1.6 /ha, 2 h after contact | [2]; 1.6 /ha, 3 h after contact | [2]; 1.6 /ha, 4 h after contact | [2]; 1.6 /ha, 24 h after contact | [2]; 8 /ha, 0.25 h after contact | [2]; 8 /ha, 0.5 h after contact | [2]; 8 /ha, 1 h after contact | [2]; 8 /ha, 2 h after contact | [2]; 8 /ha, 3 h after contact | [2]; 8 /ha, 4 h after contact | [2]; 8 /ha, 24 h after contact | [2]; 40 /ha, 0.25 h after contact | [2]; 40 /ha, 0.5 h after contact | [2]; 40 /ha, 1 h after contact | [2]; 40 /ha, 2 h after contact | [2]; 40 /ha, 3 h after contact | [2]; 40 /ha, 4 h after contact | [2]; 40 /ha, 24 h after contact | [2]; 200 /ha, 0.25 h after contact | [2]; 200 /ha, 0.5 h after contact | [2]; 200 /ha, 1 h after contact | [2]; 200 /ha, 2 h after contact | [2]; 200 /ha, 3 h after contact | [2]; 200 /ha, 4 h after contact | [2]; 200 /ha, 24 h after contact | [2]; 1000 /ha, 0.25 h after contact | [2]; 1000 /ha, 0.5 h after contact | [2]; 1000 /ha, 1 h after contact | [2]; 1000 /ha, 2 h after contact | [2]; 1000 /ha, 3 h after contact | [2]; 1000 /ha, 4 h after contact | [2]; 1000 /ha, 24 h after contact
80%: [1]; 1.6 /ha, 2 h after contact
10%: [1]; 0.32 /ha, 24 h after contact | [2]; 0.32 /ha, 24 h after contact
20%: [1]; 0.064 /ha, 24 h after contact
70%: [1]; 1.6 /ha, 24 h after contact
0%: [1]; [3] | [1]; 0.064 /ha, 0.5 h after contact | [1]; 0.064 /ha, 1 h after contact | [1]; 0.064 /ha, 2 h after contact | [1]; 0.064 /ha, 3 h after contact | [1]; 0.064 /ha, 4 h after contact | [1]; 0.32 /ha, 0.25 h after contact | [1]; 0.32 /ha, 0.5 h after contact | [1]; 0.32 /ha, 1 h after contact | [1]; 0.32 /ha, 2 h after contact | [1]; 0.32 /ha, 3 h after contact | [1]; 0.32 /ha, 4 h after contact | [2]; [3] | [2]; 0.064 /ha, 0.5 h after contact | [2]; 0.064 /ha, 1 h after contact | [2]; 0.064 /ha, 2 h after contact | [2]; 0.064 /ha, 3 h after contact | [2]; 0.064 /ha, 4 h after contact | [2]; 0.064 /ha, 24 h after contact | [2]; 0.32 /ha, 0.25 h after contact | [2]; 0.32 /ha, 0.5 h after contact | [2]; 0.32 /ha, 1 h after contact | [2]; 0.32 /ha, 2 h after contact | [2]; 0.32 /ha, 3 h after contact | [2]; 0.32 /ha, 4 h after contact
90%: [1]; 1.6 /ha, 0.25 h after contact | [2]; 1.6 /ha, 0.25 h after contact

CC1(C)[C@H](C=C(Cl)Cl)[C@H]1C(=O)OCc1c(F)c(F)cc(F)c1F [Transfluthrin, (1R,3S)-3-(2,2-Dichlorovinyl)-2,2-dimethyl-1-cyclopropanecarboxylic acid (2,3,5,6-tetrafluorophenyl)methyl ester]
95%: [1]; 0.32 g/ha, 0.25 h after contact | [1]; 1.6 g/ha, 3 h after contact
60%: [1]; 0.32 g/ha, 2 h after contact
100%: [1]; 0.32 g/ha, 0.5 h after contact | [1]; 0.32 g/ha, 1 h after contact | [1]; 1.6 g/ha, 0.25 h after contact | [1]; 1.6 g/ha, 0.5 h after contact | [1]; 1.6 g/ha, 1 h after contact | [1]; 1.6 g/ha, 2 h after contact | [1]; 1.6 g/ha, 4 h after contact | [1]; 8 g/ha, 0.25 h after contact | [1]; 8 g/ha, 0.5 h after contact | [1]; 8 g/ha, 1 h after contact | [1]; 8 g/ha, 2 h after contact | [1]; 8 g/ha, 3 h after contact | [1]; 8 g/ha, 4 h after contact | [1]; 40 g/ha, 0.25 h after contact | [1]; 40 g/ha, 0.5 h after contact | [1]; 40 g/ha, 1 h after contact | [1]; 40 g/ha, 2 h after contact | [1]; 40 g/ha, 3 h after contact | [1]; 40 g/ha, 4 h after contact | [1]; 200 g/ha, 0.25 h after contact | [1]; 200 g/ha, 0.5 h after contact | [1]; 200 g/ha, 1 h after contact | [1]; 200 g/ha, 2 h after contact | [1]; 200 g/ha, 3 h after contact | [1]; 200 g/ha, 4 h after contact
40%: [1]; 0.32 g/ha, 3 h after contact | [1]; 0.32 g/ha, 4 h after contact
